In patent US20260098061A1, “EPHA2-BINDING PENDING PEPTIDE AND COMPOSITION COMPRISING SAME” (PeptiDream Inc., priority 2022, published 2026):
Numbered stars: 1 amine (or outer) side, 2 acyl side, 3 side chain; on linkers, the order of the positions; unused ones are H or OH. Bridge positions count the residues as written; N and C are the ends. Square brackets hold non-standard residues; d marks the D form. Side chains are listed from the residue outwards. Peptide text beside a SMILES is read from it. * marks the point of attachment. NH(1-deoxy-D-glucityl) = OC[C@@H](O)[C@@H](O)[C@H](O)[C@@H](O)CN*; Trp(1-Me,7-Cl) = Cn1cc(C[C@H](N)C(=O)O)c2cccc(Cl)c21; dPhe(3-CONH2) = NC(=O)c1cccc(C[C@@H](N)C(=O)O)c1; Piperazinyl(4-CH2COOH) = O=C(O)CN1CCN(*)CC1; Trp(1-Me) = Cn1cc(C[C@H](N)C(=O)O)c2ccccc21; NMe3Pal = CN[C@@H](Cc1cccnc1)C(=O)O; NMeF = CN[C@@H](Cc1ccccc1)C(=O)O; hArg = N=C(N)NCCCC[C@H](N)C(=O)O; Gly(cBu) = N[C@H](C(=O)O)C1CCC1; NMeE = CN[C@@H](CCC(=O)O)C(=O)O; Aad = N[C@@H](CCCC(=O)O)C(=O)O; NMeN = CN[C@@H](CC(N)=O)C(=O)O; CO = O=C([*:1])[*:2]

Biological target: T1, Recombinant Human EphA2 Fc Protein (Homo sapiens, UniProt P29317)
T1 construct: purchased Elabscience
Test: SPR interaction analysis (Biacore T200), kinetics of peptides against EphA2
Format: binding
Conditions: Recombinant Human EphA2 Fc Protein captured by Human Antibody Capture kit; single-cycle kinetics; 25° C.; HBS-P+ buffer with 1% DMSO
In short: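 KD derived from ka and kd, fitted on baseline-subtracted sensorgrams from single-cycle kinetics of five peptide dilutions. Running buffer: HBS-P+ (pH 7.4) plus 1% DMSO, 25° C, Biacore T200. Recombinant human EphA2-Fc held on an antibody capture surface.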

Kd, < 1 nM:
C[C@@H](O)[C@@H]1NC(=O)[C@H](Cc2cn(C)c3ccccc23)NC(=O)[C@H](CCCCNC(=O)N2CCN(CC(=O)O)CC2)NC(=O)[C@H](Cc2cn(C)c3c(Cl)cccc23)NC(=O)[C@H](CC(N)=O)N(C)C(=O)[C@H](CCCC(N)=O)NC(=O)[C@H](C2CCC2)NC(=O)[C@H](CC(N)=O)NC(=O)[C@H](Cc2cccnc2)N(C)C(=O)[C@@H](Cc2cccc(C(N)=O)c2)NC(=O)CSC[C@@H](C(N)=O)NC(=O)[C@H](CCCCNC(=N)N)NC1=O [PDC_EphA2-00019430, df3CON-Me3Py-N-Cbg-Hgn-MeN-W1Me7Cl-KCOpipzaa-W1Me-T-Har-C-NH2] ({CH2CO}-[dPhe(3-CONH2)][NMe3Pal]N[Gly(cBu)][Aad](NH2)[NMeN][Trp(1-Me,7-Cl)]K([CO-Piperazinyl(4-CH2COOH)])[Trp(1-Me)]T[hArg]C-NH2; thioether N-12)
C[C@@H](O)[C@@H]1NC(=O)[C@H](Cc2cn(C)c3ccccc23)NC(=O)[C@H](CCC(=O)NC[C@H](O)[C@@H](O)[C@H](O)[C@H](O)CO)NC(=O)[C@H](Cc2cn(C)c3c(Cl)cccc23)NC(=O)[C@H](Cc2ccccc2)N(C)C(=O)[C@H](CCCC(N)=O)NC(=O)[C@H](C2CCC2)NC(=O)[C@H](CC(N)=O)NC(=O)[C@H](Cc2ccccc2)N(C)C(=O)[C@@H](Cc2cccc(C(N)=O)c2)NC(=O)CSC[C@@H](C(N)=O)NC(=O)[C@H](CCCC(N)=O)NC1=O [PDC_EphA2-00019431, df3CON-MeF-N-Cbg-Hgn-MeF-W1Me7Cl-Qglucamine-W1Me-T-Hgn-C-NH2] ({CH2CO}-[dPhe(3-CONH2)][NMeF]N[Gly(cBu)][Aad](NH2)[NMeF][Trp(1-Me,7-Cl)]E(NH(1-deoxy-D-glucityl))[Trp(1-Me)]T[Aad](NH2)C-NH2; thioether N-12)
C[C@@H](O)[C@@H]1NC(=O)[C@H](Cc2cn(C)c3ccccc23)NC(=O)[C@H](CCCCNC(=O)N2CCN(CC(=O)O)CC2)NC(=O)[C@H](Cc2cn(C)c3c(Cl)cccc23)NC(=O)[C@H](Cc2ccccc2)N(C)C(=O)[C@H](CCCC(N)=O)NC(=O)[C@H](C2CCC2)NC(=O)[C@H](CC(N)=O)NC(=O)[C@H](Cc2ccccc2)N(C)C(=O)[C@@H](Cc2cccc(C(N)=O)c2)NC(=O)CSC[C@@H](C(N)=O)NC(=O)[C@H](CCCC(N)=O)NC1=O [PDC_EphA2-00019432, df3CON-MeF-N-Cbg-Hgn-MeF-W1Me7Cl-KCOpipzaa-W1Me-T-Hgn-C-NH2] ({CH2CO}-[dPhe(3-CONH2)][NMeF]N[Gly(cBu)][Aad](NH2)[NMeF][Trp(1-Me,7-Cl)]K([CO-Piperazinyl(4-CH2COOH)])[Trp(1-Me)]T[Aad](NH2)C-NH2; thioether N-12)
C[C@@H](O)[C@@H]1NC(=O)[C@H](Cc2cn(C)c3ccccc23)NC(=O)[C@H](CCC(=O)NC[C@H](O)[C@@H](O)[C@H](O)[C@H](O)CO)NC(=O)[C@H](Cc2cn(C)c3c(Cl)cccc23)NC(=O)[C@H](Cc2ccccc2)N(C)C(=O)[C@H](CCCC(N)=O)NC(=O)[C@H](C2CCC2)NC(=O)[C@H](CC(N)=O)NC(=O)[C@H](Cc2cccnc2)N(C)C(=O)[C@@H](Cc2cccc(C(N)=O)c2)NC(=O)CSC[C@@H](C(N)=O)NC(=O)[C@H](CCCC(N)=O)NC1=O [PDC_EphA2-00019433, df3CON-Me3Py-N-Cbg-Hgn-MeF-W1Me7Cl-Qglucamine-W1Me-T-Hgn-C-NH2] ({CH2CO}-[dPhe(3-CONH2)][NMe3Pal]N[Gly(cBu)][Aad](NH2)[NMeF][Trp(1-Me,7-Cl)]E(NH(1-deoxy-D-glucityl))[Trp(1-Me)]T[Aad](NH2)C-NH2; thioether N-12)
C[C@@H](O)[C@@H]1NC(=O)[C@H](Cc2cn(C)c3ccccc23)NC(=O)[C@H](CCCCNC(=O)N2CCN(CC(=O)O)CC2)NC(=O)[C@H](Cc2cn(C)c3c(Cl)cccc23)NC(=O)[C@H](Cc2ccccc2)N(C)C(=O)[C@H](CCCC(N)=O)NC(=O)[C@H](C2CCC2)NC(=O)[C@H](CC(N)=O)NC(=O)[C@H](Cc2cccnc2)N(C)C(=O)[C@@H](Cc2cccc(C(N)=O)c2)NC(=O)CSC[C@@H](C(N)=O)NC(=O)[C@H](CCCC(N)=O)NC1=O [PDC_EphA2-00019434, df3CON-Me3Py-N-Cbg-Hgn-MeF-W1Me7Cl-KCOpipzaa-W1Me-T-Hgn-C-NH2] ({CH2CO}-[dPhe(3-CONH2)][NMe3Pal]N[Gly(cBu)][Aad](NH2)[NMeF][Trp(1-Me,7-Cl)]K([CO-Piperazinyl(4-CH2COOH)])[Trp(1-Me)]T[Aad](NH2)C-NH2; thioether N-12)
C[C@@H](O)[C@@H]1NC(=O)[C@H](Cc2cn(C)c3ccccc23)NC(=O)[C@H](CCC(=O)NC[C@H](O)[C@@H](O)[C@H](O)[C@H](O)CO)NC(=O)[C@H](Cc2cn(C)c3c(Cl)cccc23)NC(=O)[C@H](Cc2cccnc2)N(C)C(=O)[C@H](CCCC(N)=O)NC(=O)[C@H](C2CCC2)NC(=O)[C@H](CC(N)=O)NC(=O)[C@H](Cc2ccccc2)N(C)C(=O)[C@@H](Cc2cccc(C(N)=O)c2)NC(=O)CSC[C@@H](C(N)=O)NC(=O)[C@H](CCCC(N)=O)NC1=O [PDC_EphA2-00019435, df3CON-MeF-N-Cbg-Hgn-Me3Py-W1Me7Cl-Qglucamine-W1Me-T-Hgn-C-NH2] ({CH2CO}-[dPhe(3-CONH2)][NMeF]N[Gly(cBu)][Aad](NH2)[NMe3Pal][Trp(1-Me,7-Cl)]E(NH(1-deoxy-D-glucityl))[Trp(1-Me)]T[Aad](NH2)C-NH2; thioether N-12)
C[C@@H](O)[C@@H]1NC(=O)[C@H](Cc2cn(C)c3ccccc23)NC(=O)[C@H](CCCCNC(=O)N2CCN(CC(=O)O)CC2)NC(=O)[C@H](Cc2cn(C)c3c(Cl)cccc23)NC(=O)[C@H](Cc2cccnc2)N(C)C(=O)[C@H](CCCC(N)=O)NC(=O)[C@H](C2CCC2)NC(=O)[C@H](CC(N)=O)NC(=O)[C@H](Cc2ccccc2)N(C)C(=O)[C@@H](Cc2cccc(C(N)=O)c2)NC(=O)CSC[C@@H](C(N)=O)NC(=O)[C@H](CCCC(N)=O)NC1=O [PDC_EphA2-00019436, df3CON-MeF-N-Cbg-Hgn-Me3Py-W1Me7Cl-KCOpipzaa-W1Me-T-Hgn-C-NH2] ({CH2CO}-[dPhe(3-CONH2)][NMeF]N[Gly(cBu)][Aad](NH2)[NMe3Pal][Trp(1-Me,7-Cl)]K([CO-Piperazinyl(4-CH2COOH)])[Trp(1-Me)]T[Aad](NH2)C-NH2; thioether N-12)
C[C@@H](O)[C@@H]1NC(=O)[C@H](Cc2cn(C)c3ccccc23)NC(=O)[C@H](CCC(=O)NC[C@H](O)[C@@H](O)[C@H](O)[C@H](O)CO)NC(=O)[C@H](Cc2cn(C)c3c(Cl)cccc23)NC(=O)[C@H](CCC(=O)O)N(C)C(=O)[C@H](CCCC(N)=O)NC(=O)[C@H](C2CCC2)NC(=O)[C@H](CC(N)=O)NC(=O)[C@H](Cc2cccnc2)N(C)C(=O)[C@@H](Cc2cccc(C(N)=O)c2)NC(=O)CSC[C@@H](C(N)=O)NC(=O)[C@H](CCCC(N)=O)NC1=O [PDC_EphA2-00019439, df3CON-Me3Py-N-Cbg-Hgn-MeE-W1Me7Cl-Qglucamine-W1Me-T-Hgn-C-NH2] ({CH2CO}-[dPhe(3-CONH2)][NMe3Pal]N[Gly(cBu)][Aad](NH2)[NMeE][Trp(1-Me,7-Cl)]E(NH(1-deoxy-D-glucityl))[Trp(1-Me)]T[Aad](NH2)C-NH2; thioether N-12)
C[C@@H](O)[C@@H]1NC(=O)[C@H](Cc2cn(C)c3ccccc23)NC(=O)[C@H](CCCCNC(=O)N2CCN(CC(=O)O)CC2)NC(=O)[C@H](Cc2cn(C)c3c(Cl)cccc23)NC(=O)[C@H](CCC(=O)O)N(C)C(=O)[C@H](CCCC(N)=O)NC(=O)[C@H](C2CCC2)NC(=O)[C@H](CC(N)=O)NC(=O)[C@H](Cc2cccnc2)N(C)C(=O)[C@@H](Cc2cccc(C(N)=O)c2)NC(=O)CSC[C@@H](C(N)=O)NC(=O)[C@H](CCCC(N)=O)NC1=O [PDC_EphA2-00019440, df3CON-Me3Py-N-Cbg-Hgn-MeE-W1Me7Cl-KCOpipzaa-W1Me-T-Hgn-C-NH2] ({CH2CO}-[dPhe(3-CONH2)][NMe3Pal]N[Gly(cBu)][Aad](NH2)[NMeE][Trp(1-Me,7-Cl)]K([CO-Piperazinyl(4-CH2COOH)])[Trp(1-Me)]T[Aad](NH2)C-NH2; thioether N-12)
C[C@@H](O)[C@@H]1NC(=O)[C@H](Cc2cn(C)c3ccccc23)NC(=O)[C@H](CCCCNC(=O)N2CCN(CC(=O)O)CC2)NC(=O)[C@H](Cc2cn(C)c3c(Cl)cccc23)NC(=O)[C@H](Cc2ccccc2)N(C)C(=O)[C@H](CCCCNC(=O)N2CCN(CC(=O)O)CC2)NC(=O)[C@H](C2CCC2)NC(=O)[C@H](CC(N)=O)NC(=O)[C@H](Cc2cccnc2)N(C)C(=O)[C@@H](Cc2cccc(C(N)=O)c2)NC(=O)CSC[C@@H](C(N)=O)NC(=O)[C@H](CCCC(N)=O)NC1=O [PDC_EphA2-00019441, df3CON-Me3Py-A-Cbg-KCOpipzaa-MeF-W1Me7Cl-KCOpipzaa-W1Me-T-Hgn-C-NH2] ({CH2CO}-[dPhe(3-CONH2)][NMe3Pal]N[Gly(cBu)]K([CO-Piperazinyl(4-CH2COOH)])[NMeF][Trp(1-Me,7-Cl)]K([CO-Piperazinyl(4-CH2COOH)])[Trp(1-Me)]T[Aad](NH2)C-NH2; thioether N-12)
C[C@@H](O)[C@@H]1NC(=O)[C@H](Cc2cn(C)c3ccccc23)NC(=O)[C@H](CCC(=O)NC[C@H](O)[C@@H](O)[C@H](O)[C@H](O)CO)NC(=O)[C@H](Cc2cn(C)c3c(Cl)cccc23)NC(=O)[C@H](Cc2ccccc2)N(C)C(=O)[C@H](CCCCNC(=O)N2CCN(CC(=O)O)CC2)NC(=O)[C@H](C2CCC2)NC(=O)[C@H](CC(N)=O)NC(=O)[C@H](Cc2cccnc2)N(C)C(=O)[C@@H](Cc2cccc(C(N)=O)c2)NC(=O)CSC[C@@H](C(N)=O)NC(=O)[C@H](CCCC(N)=O)NC1=O [PDC_EphA2-00019442, df3CON-Me3Py-N-Cbg-KCOpipzaa-MeF-W1Me7Cl-Qglucamine-W1Me-T-Hgn-C-NH2] ({CH2CO}-[dPhe(3-CONH2)][NMe3Pal]N[Gly(cBu)]K([CO-Piperazinyl(4-CH2COOH)])[NMeF][Trp(1-Me,7-Cl)]E(NH(1-deoxy-D-glucityl))[Trp(1-Me)]T[Aad](NH2)C-NH2; thioether N-12)
